Experimental data taken from ChEMBL document CHEMBL5465560, “Selectivity Literature for EUbOPEN Chemogenomic Library” (2024).

What was measured:
[1] = target: T1, Non-receptor tyrosine-protein kinase TNK1 (Homo sapiens) (UniProt Q13470); experiment: Selectivity interaction (Ambit KINOMEscan and KiNATiv profiling in Jurkat cells) EUB0000090b TNK1; type: cell-based; settings: at 1 µM
T1 sequence (whole entry): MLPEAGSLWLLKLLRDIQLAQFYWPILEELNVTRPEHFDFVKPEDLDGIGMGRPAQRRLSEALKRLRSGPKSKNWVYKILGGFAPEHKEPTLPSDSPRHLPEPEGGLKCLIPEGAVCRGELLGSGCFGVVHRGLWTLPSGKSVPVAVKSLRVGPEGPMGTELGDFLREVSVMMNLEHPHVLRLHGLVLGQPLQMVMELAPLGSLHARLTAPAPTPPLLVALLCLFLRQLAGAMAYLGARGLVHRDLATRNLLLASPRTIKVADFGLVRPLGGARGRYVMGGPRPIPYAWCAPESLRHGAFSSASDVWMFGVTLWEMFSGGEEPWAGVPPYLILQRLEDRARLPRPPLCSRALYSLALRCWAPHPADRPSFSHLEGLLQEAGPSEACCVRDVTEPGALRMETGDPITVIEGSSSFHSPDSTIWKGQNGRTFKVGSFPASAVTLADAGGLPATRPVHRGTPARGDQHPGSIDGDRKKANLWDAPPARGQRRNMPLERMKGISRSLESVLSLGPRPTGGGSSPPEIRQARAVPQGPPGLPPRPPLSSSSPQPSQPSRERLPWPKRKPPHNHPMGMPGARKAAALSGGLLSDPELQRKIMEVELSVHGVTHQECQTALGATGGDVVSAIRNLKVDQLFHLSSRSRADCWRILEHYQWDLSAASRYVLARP

[2] = target: Tyrosine-protein kinase BTK (Homo sapiens, UniProt Q06187); experiment: Selectivity interaction (KinomeScan (DiscoverX)) EUB0000607a BTK; settings: at 10 µM
Tyrosine-protein kinase BTK, sequence (Q06187 whole entry): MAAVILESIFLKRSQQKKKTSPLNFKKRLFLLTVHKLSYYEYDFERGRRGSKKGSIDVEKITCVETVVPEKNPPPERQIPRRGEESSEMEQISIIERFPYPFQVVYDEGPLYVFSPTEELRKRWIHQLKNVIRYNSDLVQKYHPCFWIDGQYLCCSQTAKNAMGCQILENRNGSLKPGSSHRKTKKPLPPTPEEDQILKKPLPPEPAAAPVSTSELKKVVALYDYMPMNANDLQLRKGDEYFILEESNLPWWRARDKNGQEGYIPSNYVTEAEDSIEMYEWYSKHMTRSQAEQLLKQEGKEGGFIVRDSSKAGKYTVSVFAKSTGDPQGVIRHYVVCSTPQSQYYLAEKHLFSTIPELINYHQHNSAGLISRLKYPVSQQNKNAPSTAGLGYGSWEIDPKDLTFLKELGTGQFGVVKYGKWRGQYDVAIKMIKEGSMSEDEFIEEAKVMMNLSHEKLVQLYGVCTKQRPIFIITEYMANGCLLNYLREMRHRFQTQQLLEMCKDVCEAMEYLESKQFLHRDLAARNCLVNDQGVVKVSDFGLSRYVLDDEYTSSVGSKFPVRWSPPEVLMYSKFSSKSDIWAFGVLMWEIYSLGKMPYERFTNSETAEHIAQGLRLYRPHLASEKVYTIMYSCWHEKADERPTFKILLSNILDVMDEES

[3] = target: TGF-beta receptor type-2 (Homo sapiens) (UniProt P37173); experiment: Selectivity interaction (KinomeScan (DiscoverX)) EUB0001619a TGFBR2; settings: at 1 µM
TGF-beta receptor type-2 (Homo sapiens), sequence (P37173 whole entry): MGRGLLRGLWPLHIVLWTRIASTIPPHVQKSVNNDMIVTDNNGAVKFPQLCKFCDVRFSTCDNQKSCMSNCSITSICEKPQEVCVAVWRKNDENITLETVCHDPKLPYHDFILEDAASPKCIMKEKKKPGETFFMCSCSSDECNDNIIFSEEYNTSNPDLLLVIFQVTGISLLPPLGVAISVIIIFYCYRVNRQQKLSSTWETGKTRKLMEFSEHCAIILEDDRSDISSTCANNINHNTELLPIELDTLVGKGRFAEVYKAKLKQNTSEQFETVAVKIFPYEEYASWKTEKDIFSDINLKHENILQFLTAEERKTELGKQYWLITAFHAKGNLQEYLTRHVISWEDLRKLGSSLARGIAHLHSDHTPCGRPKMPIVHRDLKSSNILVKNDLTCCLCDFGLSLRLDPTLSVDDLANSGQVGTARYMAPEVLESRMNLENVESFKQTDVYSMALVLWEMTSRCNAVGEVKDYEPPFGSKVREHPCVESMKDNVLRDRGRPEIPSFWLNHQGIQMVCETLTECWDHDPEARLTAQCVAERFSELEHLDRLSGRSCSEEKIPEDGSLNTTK

[4] = target: T2, Cyclin-dependent kinase 11A (Homo sapiens) (UniProt Q9UQ88); experiment: Selectivity interaction (Kinase panel (KiNativ target engagement assay in Jurkat cells)) EUB0001635a CDK11A; type: cell-based; settings: Selectivity number of off-targets 0.0, Selectivity number of targets 233.0, Source Knowledge https://www.sciencedirect.com/science/article/pii/S2451945619300674?via%3Dihub, at 1 µM
T2 sequence (whole entry): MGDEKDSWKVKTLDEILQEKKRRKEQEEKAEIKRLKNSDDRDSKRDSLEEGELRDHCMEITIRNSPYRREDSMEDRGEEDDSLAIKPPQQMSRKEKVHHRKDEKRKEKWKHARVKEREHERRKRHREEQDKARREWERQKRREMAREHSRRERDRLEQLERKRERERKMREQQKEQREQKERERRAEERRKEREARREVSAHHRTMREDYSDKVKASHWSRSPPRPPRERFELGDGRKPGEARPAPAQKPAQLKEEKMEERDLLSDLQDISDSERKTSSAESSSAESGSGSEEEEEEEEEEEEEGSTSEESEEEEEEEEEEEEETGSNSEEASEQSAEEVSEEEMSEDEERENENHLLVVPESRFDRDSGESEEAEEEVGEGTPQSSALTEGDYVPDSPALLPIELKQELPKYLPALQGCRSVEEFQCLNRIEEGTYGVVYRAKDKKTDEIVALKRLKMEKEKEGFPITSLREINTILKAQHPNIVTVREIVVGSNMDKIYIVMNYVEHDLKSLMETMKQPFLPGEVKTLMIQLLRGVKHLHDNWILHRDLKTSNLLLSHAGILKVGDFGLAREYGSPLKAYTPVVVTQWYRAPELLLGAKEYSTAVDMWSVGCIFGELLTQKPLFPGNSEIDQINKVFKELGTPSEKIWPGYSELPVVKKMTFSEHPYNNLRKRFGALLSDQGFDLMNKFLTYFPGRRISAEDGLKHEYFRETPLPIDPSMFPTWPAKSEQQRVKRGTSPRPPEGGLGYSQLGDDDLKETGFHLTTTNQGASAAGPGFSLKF

[5] = target: G protein-coupled receptor kinase 4 (Homo sapiens) (UniProt P32298); settings: at 10 µM
[6] = target: T3, Dual specificity mitogen-activated protein kinase kinase 4 (Homo sapiens) (UniProt P45985); experiment: Selectivity interaction (ActivX KiNativ screen (kinase selectivity in THP-1 cell lysates)) EUB0000639a MAP2K4; type: subcellular; settings: lysate, at 5 µM
T3 sequence (whole entry): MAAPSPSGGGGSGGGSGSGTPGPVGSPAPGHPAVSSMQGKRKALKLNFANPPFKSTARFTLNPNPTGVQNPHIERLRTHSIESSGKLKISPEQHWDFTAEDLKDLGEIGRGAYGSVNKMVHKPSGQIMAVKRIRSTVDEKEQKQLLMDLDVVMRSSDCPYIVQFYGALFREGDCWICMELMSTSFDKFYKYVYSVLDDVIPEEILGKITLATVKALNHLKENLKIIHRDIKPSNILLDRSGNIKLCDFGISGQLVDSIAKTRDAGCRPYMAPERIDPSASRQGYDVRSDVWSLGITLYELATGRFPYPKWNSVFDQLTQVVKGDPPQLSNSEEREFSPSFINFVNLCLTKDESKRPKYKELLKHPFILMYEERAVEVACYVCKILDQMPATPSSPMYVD

[7] = target: Tyrosine-protein kinase receptor UFO (Homo sapiens) (UniProt P30530); experiment: Selectivity interaction (ProQinase) EUB0000171b AXL
Tyrosine-protein kinase receptor UFO (Homo sapiens), sequence (P30530 whole entry): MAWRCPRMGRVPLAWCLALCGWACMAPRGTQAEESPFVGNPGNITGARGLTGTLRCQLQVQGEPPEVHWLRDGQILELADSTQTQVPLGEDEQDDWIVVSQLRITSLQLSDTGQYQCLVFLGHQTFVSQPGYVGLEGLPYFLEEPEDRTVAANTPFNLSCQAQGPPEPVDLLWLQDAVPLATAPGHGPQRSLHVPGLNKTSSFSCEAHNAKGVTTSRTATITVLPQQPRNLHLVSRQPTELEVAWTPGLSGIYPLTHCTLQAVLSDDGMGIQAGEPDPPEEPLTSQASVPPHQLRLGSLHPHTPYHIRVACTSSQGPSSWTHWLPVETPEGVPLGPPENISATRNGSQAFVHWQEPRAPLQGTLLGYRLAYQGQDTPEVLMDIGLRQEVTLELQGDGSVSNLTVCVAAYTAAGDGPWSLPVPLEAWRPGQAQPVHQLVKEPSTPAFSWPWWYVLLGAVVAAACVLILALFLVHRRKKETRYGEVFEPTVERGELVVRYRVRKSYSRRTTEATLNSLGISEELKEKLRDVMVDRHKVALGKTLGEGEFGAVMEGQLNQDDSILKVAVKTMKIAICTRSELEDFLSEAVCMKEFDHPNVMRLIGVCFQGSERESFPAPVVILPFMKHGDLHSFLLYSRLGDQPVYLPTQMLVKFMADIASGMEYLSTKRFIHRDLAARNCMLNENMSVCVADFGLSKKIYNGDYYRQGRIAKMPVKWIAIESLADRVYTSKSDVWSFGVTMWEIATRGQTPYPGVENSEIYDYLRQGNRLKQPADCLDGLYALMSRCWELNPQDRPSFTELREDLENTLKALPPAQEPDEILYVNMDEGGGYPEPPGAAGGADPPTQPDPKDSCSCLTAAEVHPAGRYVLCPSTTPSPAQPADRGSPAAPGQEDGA

[8] = target: Receptor tyrosine-protein kinase erbB-2 (Homo sapiens, UniProt P04626); experiment: Selectivity interaction (ProQinase) EUB0000171b ERBB2
Receptor tyrosine-protein kinase erbB-2, sequence (P04626 whole entry): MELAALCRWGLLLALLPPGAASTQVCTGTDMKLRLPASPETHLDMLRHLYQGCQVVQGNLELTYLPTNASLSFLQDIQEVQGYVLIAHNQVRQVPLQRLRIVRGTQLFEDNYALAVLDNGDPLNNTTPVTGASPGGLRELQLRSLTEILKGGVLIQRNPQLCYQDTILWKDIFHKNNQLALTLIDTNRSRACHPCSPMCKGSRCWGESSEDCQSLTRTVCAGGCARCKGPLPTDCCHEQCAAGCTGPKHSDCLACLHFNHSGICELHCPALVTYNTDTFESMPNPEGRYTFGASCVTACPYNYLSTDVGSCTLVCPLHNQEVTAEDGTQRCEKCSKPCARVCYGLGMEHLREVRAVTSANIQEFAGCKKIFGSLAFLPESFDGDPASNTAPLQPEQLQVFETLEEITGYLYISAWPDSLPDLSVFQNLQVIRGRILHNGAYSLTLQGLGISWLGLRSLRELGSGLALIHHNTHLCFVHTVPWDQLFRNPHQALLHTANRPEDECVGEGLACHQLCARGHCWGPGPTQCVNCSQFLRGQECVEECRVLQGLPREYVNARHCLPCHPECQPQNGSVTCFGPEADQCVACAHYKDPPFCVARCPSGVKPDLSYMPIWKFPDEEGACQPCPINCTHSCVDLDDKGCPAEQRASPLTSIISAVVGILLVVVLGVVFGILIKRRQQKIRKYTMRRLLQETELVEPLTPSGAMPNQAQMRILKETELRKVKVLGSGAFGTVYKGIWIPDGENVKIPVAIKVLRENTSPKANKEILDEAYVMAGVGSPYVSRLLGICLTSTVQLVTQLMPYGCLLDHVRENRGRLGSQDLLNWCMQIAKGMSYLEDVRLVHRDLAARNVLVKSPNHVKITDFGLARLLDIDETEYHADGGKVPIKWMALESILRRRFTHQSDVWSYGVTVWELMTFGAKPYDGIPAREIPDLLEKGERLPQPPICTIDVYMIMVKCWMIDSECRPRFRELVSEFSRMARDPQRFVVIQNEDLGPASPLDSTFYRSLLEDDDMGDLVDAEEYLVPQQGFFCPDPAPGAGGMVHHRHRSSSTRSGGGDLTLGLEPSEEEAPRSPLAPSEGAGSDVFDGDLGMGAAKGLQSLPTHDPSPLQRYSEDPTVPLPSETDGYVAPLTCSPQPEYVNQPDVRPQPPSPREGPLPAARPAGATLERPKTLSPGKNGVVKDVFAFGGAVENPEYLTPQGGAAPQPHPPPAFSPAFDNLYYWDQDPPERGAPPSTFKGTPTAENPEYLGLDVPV

[9] = target: T4, Serine/threonine-protein kinase ULK3 (Homo sapiens) (UniProt Q6PHR2); experiment: Selectivity interaction (KinomeScan (DiscoverX)) EUB0001550a ULK3; settings: at 1 µM
T4 sequence (whole entry): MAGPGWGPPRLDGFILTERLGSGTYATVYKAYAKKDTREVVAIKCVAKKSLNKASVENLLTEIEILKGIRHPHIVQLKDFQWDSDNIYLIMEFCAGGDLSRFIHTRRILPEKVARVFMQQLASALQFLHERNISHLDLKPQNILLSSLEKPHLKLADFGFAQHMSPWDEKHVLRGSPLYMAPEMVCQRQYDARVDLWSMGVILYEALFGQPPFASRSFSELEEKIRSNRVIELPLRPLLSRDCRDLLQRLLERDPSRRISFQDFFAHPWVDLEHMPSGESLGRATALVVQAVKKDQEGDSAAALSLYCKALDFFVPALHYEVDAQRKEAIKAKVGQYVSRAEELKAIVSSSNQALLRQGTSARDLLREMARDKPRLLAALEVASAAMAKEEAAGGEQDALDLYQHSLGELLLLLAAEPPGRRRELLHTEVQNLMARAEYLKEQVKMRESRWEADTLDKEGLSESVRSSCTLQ

[10] = target: Homeodomain-interacting protein kinase 3 (Homo sapiens, UniProt Q9H422); experiment: Selectivity interaction (KinomeScan (DiscoverX)) EUB0000695a HIPK3; settings: at 100 nM
Homeodomain-interacting protein kinase 3, sequence (Q9H422 whole entry, looked up): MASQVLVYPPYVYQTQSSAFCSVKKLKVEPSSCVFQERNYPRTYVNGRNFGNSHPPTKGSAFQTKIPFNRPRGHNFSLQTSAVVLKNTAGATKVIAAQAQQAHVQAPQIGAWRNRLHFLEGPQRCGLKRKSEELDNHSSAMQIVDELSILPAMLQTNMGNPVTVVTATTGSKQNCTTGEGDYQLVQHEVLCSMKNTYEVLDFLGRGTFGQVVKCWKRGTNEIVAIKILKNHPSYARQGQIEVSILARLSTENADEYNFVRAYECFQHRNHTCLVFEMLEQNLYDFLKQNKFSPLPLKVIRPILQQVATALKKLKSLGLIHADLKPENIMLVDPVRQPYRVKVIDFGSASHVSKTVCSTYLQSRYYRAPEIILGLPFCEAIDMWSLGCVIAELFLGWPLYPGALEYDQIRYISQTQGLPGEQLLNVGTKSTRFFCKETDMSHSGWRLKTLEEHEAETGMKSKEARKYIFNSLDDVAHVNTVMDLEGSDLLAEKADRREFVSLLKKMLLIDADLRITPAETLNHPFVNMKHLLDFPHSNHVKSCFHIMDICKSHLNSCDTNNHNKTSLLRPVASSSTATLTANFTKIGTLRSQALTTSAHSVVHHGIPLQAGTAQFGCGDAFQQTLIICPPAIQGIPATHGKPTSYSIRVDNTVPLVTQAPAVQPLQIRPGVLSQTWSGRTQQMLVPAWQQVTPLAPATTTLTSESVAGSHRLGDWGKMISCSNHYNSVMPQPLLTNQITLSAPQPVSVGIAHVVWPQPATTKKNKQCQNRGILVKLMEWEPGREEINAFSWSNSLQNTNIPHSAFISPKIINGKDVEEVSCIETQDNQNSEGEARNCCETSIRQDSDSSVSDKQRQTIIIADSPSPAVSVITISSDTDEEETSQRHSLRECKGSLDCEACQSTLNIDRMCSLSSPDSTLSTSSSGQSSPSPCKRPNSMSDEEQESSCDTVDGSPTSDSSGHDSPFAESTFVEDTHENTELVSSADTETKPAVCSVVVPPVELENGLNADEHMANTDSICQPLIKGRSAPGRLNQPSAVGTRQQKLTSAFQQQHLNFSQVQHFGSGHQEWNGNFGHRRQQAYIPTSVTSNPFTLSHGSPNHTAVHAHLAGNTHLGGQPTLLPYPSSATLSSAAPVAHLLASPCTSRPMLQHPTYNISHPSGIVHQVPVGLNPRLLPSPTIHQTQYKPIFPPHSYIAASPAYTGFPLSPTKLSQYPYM

With `CN(C)C/C=C/C(=O)Nc1ccc(C(=O)N2CCCC(Nc3ncc(Cl)c(-c4c[nH]c5ccccc45)n3)C2)cc1` (configuration not stated) as the molecule, how does the % of control [1] read?
The % of control was 96%.

With `CNC(=O)Nc1ccc(-c2nc(N3CC4CCC(C3)O4)c3cnn(C4CCC5(CC4)OCCO5)c3n2)cc1` as the molecule, how does the % of control [2] read?
Its % of control is 90%.

With `N#Cc1cccc(-c2c[nH]c3ncnc(N4CCOCC4)c23)c1` as the molecule, how does the % of control [3] read?
Its % of control is 100%.

Which % of engagement [4] does the source give for `C=CC(=O)Nc1ccc(C(=O)Nc2[nH]nc3c2CN(C(=O)N[C@H](CN(C)C)c2ccccc2)C3(C)C)cc1` here?
The % of engagement was -0.8%.

`Cc1cc([C@@H](C)Nc2ccccc2C(=O)O)c2nc(N3CCOCC3)cc(=O)n2c1` [AZD-6482] was tested. Which % of control [5] did it give?
The % of control was 90%.

For `CC[C@@H]1[C@H](F)C(=O)N[C@@H]1COc1nccc2cc(C(N)=O)c(OC)cc12` [ZIMLOVISERTIB], which % of inhibition [6] is on record?
The % of inhibition was 29.6%.

With `C=CC(=O)Nc1cccc(C(=O)Nc2ccc(Nc3cc(-c4[nH]c(SC)nc4C)ccn3)cc2)c1` as the molecule, how does the % of control ([7]; at 1 µM) read?
Its % of control is 99%.

What about the % of control ([7]; at 5 µM) of the same molecule?
The % of control was 76%.

And the % of control ([8]; at 1 µM)?
The % of control was 92%.

And the % of control ([8]; at 5 µM)?
Its % of control is 94%.

For `CN(C)CC#Cc1ccc2[nH]c3c(c2c1)-c1nc(N)ncc1CCC3`, which % of control [9] is on record?
The % of control was 11%.

How did the % of control [10] turn out when `Cc1cc(F)c(C(=O)Nc2cccc(-c3nncn3C(C)C)n2)cc1-n1cnc(C2CC2)c1` was run?
The % of control was 100%.
